{"source": "paper PMC6344423", "about": "“Opposing Actions of Adrenocorticotropic Hormone and Glucocorticoids on UCP1-Mediated Respiration in Brown Adipocytes” (Frontiers in Physiology, 2019)", "key": {"[1]": {"system": "Ucp1 gene expression in primary brown adipocytes of Ucp1^ki/ki mice", "experiment": "Luciferase assay, FLUC activity as surrogate for Ucp1 expression", "type": "cell-based, mouse", "conditions": "overnight stimulation, normalized to total protein content, n = 3, Figure 1D", "procedure": "After overnight stimulation of primary brown adipocytes of Ucp1^ki/ki mice luciferase activity was assayed using a commercial kit system (Luciferase Assay System Freezer Pack E4030, Promega GmbH). Primary cells were lysed in 1x reporter lysis buffer by shaking for 20 min at room temperature. 10 μl lysate was mixed with 50 μl luciferase assay substrate solution, and the mixture was measured by FB12 in a luminometer (Single Tube Luminometer, Titertek-Berthold GmbH). Bioluminescence readouts were normalized to total protein content.\nWe then measured FLUC activity in primary brown adipocytes from Ucp1^ki/ki reporter gene mice to determine the effect of the GsPCR ligands on Ucp1 gene expression in response to overnight stimulation. As the expression of Fluc in these cells is driven by Ucp1promoter, FLUC activity served as a surrogate for Ucp1 expression."}, "primary brown adipocytes": {"system": "primary brown adipocytes", "experiment": "Microplate-based respirometry (XF96), UCP1-mediated uncoupled respiration", "type": "cell-based, mouse", "conditions": "for Stimulated respiration (fold increase of basal leak), ACTH heptapeptide fragments: fragments 1 μM, n = 4, Figures 4A,B,D,E; for Stimulated respiration (UCP1-dependent uncoupled respiration) as fold increase of basal leak respiration, GsPCR ligand screen: primary brown adipocytes (129S6 mice), acute addition after oligomycin 5 μM, medium with 1–2% fatty acid free BSA, 37°C, n = 5, Figures 1B,C", "procedure": "Oxygen consumption of primary brown adipocytes was measured at 37°C using microplate-based respirometry (XF96 extracellular flux analyzer, Seahorse Bioscience) as described previously ([Li et al., 2014b]) following the subsequent protocol at day 7 of differentiation. Prior to the respiration measurement, primary cells were washed with warmed, unbuffered assay medium (DMEM basal medium supplemented with 25 mM glucose, 31 mM NaCl, 2 mM GlutaMax and 15 mg/l phenol red, pH 7.4) (basal assay medium). Subsequent to the medium replacement with basal assay medium containing 1–2% essentially fatty acid free bovine serum albumin (BSA), cells were incubated at 37°C in a CO2-free incubator for 1 h. Assay reagents were loaded into the drug injections ports of the sensor cartridges at 10X in basal assay medium (no BSA). After assessment of basal oxygen consumption in untreated cells oligomycin (5 μM) was injected to inhibit coupled respiration and to determine basal leak respiration. Next, effector was added to investigate UCP1-dependant uncoupled respiration. By the addition of FCCP (1 μM) maximal respiratory capacity was determined. Lastly, non-mitochondrial oxygen consumption was assessed by blocking mitochondrial respiration with antimycin A (5 μM). For some experiments, cells were pretreated for 1 h with 50 μM H89 (PKA inhibitor), 1–100 μM propranolol (β-adrenergic receptor antagonist), 40 μM Atglistatin (ATGL inhibitor) and 40 μM Hi76-0079 (HSL inhibitor) 1 h prior to the measurement. Oxygen consumption rates were automatically calculated by the Seahorse XF-96 software. Each experiment was repeated at least three times with similar results and five to eight replicate wells for every condition in each independent experiment. Results are predominately expressed as stimulated respiration which is calculated as fold increase of basal leak.\nIn our first screen, we tested whether these GsPCR ligands can activate oxygen consumption acutely in brown adipocytes. UCP1-mediated uncoupled respiration was quantified in cultured adherent intact primary brown adipocytes, according to a protocol established in our lab ([Li et al., 2014b]). After recording basal respiration and the fraction of coupled and uncoupled respiration, UCP1-dependent respiration was measured. Finally, maximal respiratory capacity and non-mitochondrial oxygen consumption were assessed by adding the uncoupling agent carbonyl cyanide 4-(trifluoromethoxy) phenylhydrazone (FCCP) and antimycin A was added to block the electron transport chain, respectively. All respiration assays were performed in the presence of BSA to buffer free fatty acid (FFA) levels in the respiration medium."}, "[2]": {"system": "melanocortin 2 receptor (Mc2r) expression", "experiment": "Mc2r gene expression (qRT-PCR) in primary brown adipocytes", "type": "cell-based, mouse", "conditions": "5 μM Dexa, 0–4 h, n = 4", "procedure": "(§1) Total RNA was isolated using Trisure (Bioline) and purified with SV total RNA Isolation System (Promega). Reverse transcriptase reactions were performed using SensiFAST cDNA Synthesis Kit (Bioline). Quantitative real-time PCR (qRT-PCR) was performed with SYBR green fluorescent dye in 384-well format using LightCycler 480 (Roche). General Transcription Factor IIB (Gtf2b) served as an internal control. To be able to calculate relative gene expression levels of samples, standard reactions containing serial diluted pooled cDNA of all samples (Pure, 1:2, 1:4, 1:8, 1:16, 1:32 and 1:64) as a template were used to establish a standard curve. The RNA abundance of Ucp1 gene was normalized to the housekeeping gene Gtf2b. The following primers were used: […]"}, "[3]": {"system": "β3-adrenergic receptor (Adrb3) expression", "experiment": "Adrb3 gene expression (qRT-PCR) in primary brown adipocytes", "type": "cell-based, mouse", "conditions": "5 μM Dexa, 0–4 h, n = 4", "procedure": "as §1"}, "[4]": {"system": "Ucp1 mRNA in primary brown adipocytes", "experiment": "Ucp1 gene expression analysis (qRT-PCR), brown adipocytes", "type": "cell-based, mouse", "conditions": "for Ucp1 mRNA expression, ACTH heptapeptide fragments: normalized to Gtf2b, n = 4, Figures 4C,F", "procedure": "as §1"}, "[5]": {"system": "cytosolic cAMP in primary brown adipocytes", "experiment": "Quantification of cellular cAMP (cAMP-Glo Assay)", "type": "cell-based, mouse", "procedure": "Changes in cytosolic cAMP concentrations were determined in primary brown adipocytes in response to ACTH- or isoproterenol stimulation using cAMP-Glo Assay (Promega) following the manufacturer’s instructions."}, "[6]": {"system": "Ucp1 mRNA and UCP1 protein", "parameters": "method as in Soumano et al., 2000; van den Beukel et al., 2014", "conditions": "ref Soumano et al., 2000; van den Beukel et al., 2014; cited from earlier work", "description": "To address the physiological role of ACTH in brown fat thermogenesis we analyzed the expression of its receptor in BAT of mice in response to cold exposure. […] Basically, ACTH triggers the release of glucocorticoids from the cortex of the adrenal gland. Circulating glucocorticoids exert negative feedback control on the […] ..."}, "release of FFAs": {"system": "release of FFAs", "conditions": "lipolysis as criterion of potency; ref Draper et al., 1973; cited from earlier work", "description": "The heptapeptide sequence, Met-Glu-His-Phe-Arg-Trp-Gly, is common to all the adrenocorticotropic (ACTH), melanotropic (MSH), and lipotropic (LPH) hormones."}, "[7]": {"conditions": "5 μM Dexa pretreatment, n = 4, Figure 5G"}}, "note": "Ends that are not written are not given here."}
{"molecule": "CCNC(=O)[C@H]1O[C@@H](n2cnc3c(N)nc(NCCc4ccc(CCC(=O)O)cc4)nc32)[C@H](O)[C@@H]1O", "note": "[CGS21680]", "values": [{"measurement": "FLUC (luciferase) activity as surrogate for Ucp1 expression", "setting": "[1]", "result": "no effect on FLUC"}]}
{"molecule": "C[C@@H]1C[C@H]2[C@@H]3CCC4=CC(=O)C=C[C@]4(C)[C@@]3(F)[C@@H](O)C[C@]2(C)[C@@]1(O)C(=O)CO", "note": "[Dexa, dexamethasone]", "values": [{"measurement": "Effect of Dexa pretreatment on ACTH-induced respiration", "setting": "primary brown adipocytes; 5 μM Dexa, 0–4 h, n = 4, Figure 5C", "result": "unaffected"}, {"measurement": "Effect of Dexa pretreatment on ISO-stimulated respiration", "setting": "primary brown adipocytes; 5 μM Dexa, 0–4 h, with increasing exposure time, n = 4, Figure 5C", "result": "attenuated ISO-stimulated respiration"}, {"measurement": "Effect of Dexa on respiration, one-hour pre-treatment or acute stimulation", "setting": "primary brown adipocytes; 5 μM Dexa, n = 4, Figure 5B", "result": "had no effect on respiration"}, {"measurement": "Effect of DEXA treatment on thermogenic response, 1 h", "setting": "primary brown adipocytes; DEXA treatment for 1 h", "result": "had no effect"}, {"measurement": "Effect of DEXA treatment on thermogenic response to ISO, 4 h", "setting": "primary brown adipocytes; extended DEXA treatment for 4 h, compared with 2 h", "result": "more pronounced"}, {"measurement": "Effect of DEXA treatment on thermogenic response to ISO, 2 h", "setting": "primary brown adipocytes; two hours of DEXA treatment", "result": "significant downregulation of the thermogenic response to ISO"}, {"measurement": "Effect of Dexa on expression of the melanocortin 2 receptor", "setting": "[2]", "result": "not a consequence of reduced or increased expression"}, {"measurement": "Effect of Dexa on expression of the β3-adrenergic receptor", "setting": "[3]", "result": "not a consequence of reduced or increased expression"}, {"measurement": "Effect of Dexa on Ucp1 expression", "setting": "[4]; 4-h treatment, 5 μM Dexa, n = 4", "result": "no significant effect on Ucp1 expression"}, {"measurement": "Effect of Dexa on ACTH induced rise in cellular cAMP", "setting": "[5]; [7]", "result": "no such effect was observed for ACTH"}, {"measurement": "Effect of Dexa on ISO induced rise in cellular cAMP", "setting": "[5]; [7]", "result": "attenuated the ISO induced rise in cellular cAMP levels"}]}
{"molecule": "O=S(=O)(NCCNC/C=C/c1ccc(Br)cc1)c1cccc2cnccc12", "note": "[H89]", "values": [{"measurement": "Effect of PKA inhibitor on ACTH-stimulated respiration", "setting": "primary brown adipocytes; H89 50 μM, ACTH 1 μM, n = 4, Figure 2E", "result": "completely blocked the effect on respiration of ACTH"}]}
{"molecule": "CC(C)NCC(O)c1ccc(O)c(O)c1", "note": "(stereo not drawn) [ISO, isoproterenol]", "values": [{"measurement": "EC50", "setting": "[5]; Mus musculus, Adipocyte, 0.5 h, stimulation for 30 min, n = 3, non-linear regression, Figure 2D", "result": 9.41, "unit": "nM"}]}
{"molecule": "CCCCC[C@H](O)/C=C/[C@H]1[C@H](O)CC(=O)[C@@H]1C/C=C\\CCCC(=O)O", "note": "[PGE2, Prostaglandin E2]", "values": [{"measurement": "FLUC (luciferase) activity as surrogate for Ucp1 expression", "setting": "[1]", "result": "moderate rise in FLUC activity"}]}
{"molecule": "C[C@]12C[C@H](O)[C@H]3[C@@H](CCC4=CC(=O)CC[C@@]43C)[C@@H]1CC[C@@H]2C(=O)CO", "note": "[corticosterone]", "values": [{"measurement": "Effect on Ucp1 mRNA and UCP1 protein in response to adrenergic stimulation and ACTH treatment", "setting": "[6]", "result": "reduces Ucp1 mRNA and UCP1 protein"}]}
{"molecule": "CC(C)NCC(O)COc1cccc2ccccc12", "note": "(stereo not drawn) [propranolol]", "values": [{"measurement": "Effect of propranolol pre-treatment on ACTH stimulated respiration", "setting": "primary brown adipocytes; 1 h pretreatment, 1–100 μM propranolol, ACTH 1 μM, n = 4, Figure 2B", "result": "did not attenuate ACTH stimulated respiration"}, {"measurement": "Effect of propranolol pre-treatment on ISO stimulated respiration", "setting": "primary brown adipocytes; 1 h pretreatment, 1–100 μM propranolol, ISO 0.5 μM, n = 4, Figure 2B", "result": "blocking the effect of ISO in a dose-dependent manner"}]}
{"molecule": "MRHFRWG [synACTH(4-10), mutant ACTH fragment, synthetic analog of ACTH(4-10) with amino acid exchange from Glu to Arg]", "values": [{"measurement": "Stimulated respiration (fold increase of basal leak), ACTH heptapeptide fragments", "setting": "primary brown adipocytes", "result": "mildly increased respiration"}, {"measurement": "Activity on the release of FFAs compared to the natural ACTH core sequence", "setting": "release of FFAs", "result": "fourfold increased activity on the release of FFAs"}, {"measurement": "Ucp1 mRNA expression, ACTH heptapeptide fragments", "setting": "[4]", "result": "comparable to that of the natural heptapeptide"}]}
{"molecule": "Met-Glu-His-Phe-Arg-Trp-Gly [ACTH(4-10)]", "values": [{"measurement": "Stimulated respiration (fold increase of basal leak), ACTH heptapeptide fragments", "setting": "primary brown adipocytes", "result": "no impact on respiration"}, {"measurement": "Ucp1 mRNA expression, ACTH heptapeptide fragments", "setting": "[4]", "result": "significantly increased Ucp1 mRNA expression"}]}
{"molecule": "PACAP: pituitary adenylate cyclase-activating peptide", "values": [{"measurement": "Stimulated respiration (UCP1-dependent uncoupled respiration) as fold increase of basal leak respiration, GsPCR ligand screen", "setting": "primary brown adipocytes", "result": "weakest effects on cellular respiration"}, {"measurement": "FLUC (luciferase) activity as surrogate for Ucp1 expression", "setting": "[1]", "result": "highest FLUC activities"}]}
{"molecule": "PTH: parathyroid hormone, ligand of PTHR", "values": [{"measurement": "Stimulated respiration (UCP1-dependent uncoupled respiration) as fold increase of basal leak respiration, GsPCR ligand screen", "setting": "primary brown adipocytes", "result": "modest compared to ISO"}, {"measurement": "FLUC (luciferase) activity as surrogate for Ucp1 expression", "setting": "[1]", "result": "highest FLUC activities"}]}
{"molecule": "adrenomedullin: ligand for calcitonin receptor-like receptor (CALCRL)", "values": [{"measurement": "FLUC (luciferase) activity as surrogate for Ucp1 expression", "setting": "[1]", "result": "only had minor effects"}]}
{"molecule": "secretin: peptide ligand of the secretin receptor", "values": [{"measurement": "Stimulated respiration (UCP1-dependent uncoupled respiration) as fold increase of basal leak respiration, GsPCR ligand screen", "setting": "primary brown adipocytes", "result": "most prominent induction of UCP1-dependant uncoupled respiration"}, {"measurement": "FLUC (luciferase) activity as surrogate for Ucp1 expression", "setting": "[1]", "result": "highest FLUC activities"}]}
{"molecule": "thyroid hormone", "values": [{"measurement": "FLUC (luciferase) activity as surrogate for Ucp1 expression", "setting": "[1]", "result": "no effect on FLUC"}]}
{"molecule": "α-MSH: α-melanocyte-stimulating hormone, melanocortin", "values": [{"measurement": "Stimulated respiration (UCP1-dependent uncoupled respiration) as fold increase of basal leak respiration, GsPCR ligand screen", "setting": "primary brown adipocytes", "result": "weakest effects on cellular respiration"}, {"measurement": "FLUC (luciferase) activity as surrogate for Ucp1 expression", "setting": "[1]", "result": "moderate rise in FLUC activity"}]}
